According to ChEMBL document CHEMBL4359887, “Hitting on the move: Targeting intrinsically disordered protein states of the MDM2-p53 interaction” (Eur J Med Chem, 2019):

Legend:
[1] = tested on: SAOS-2; assay: Anticancer activity against p53-deleted human Saos2 cells assessed as inhibition of cell viability measured after 5 days by MTT assay; settings: SAOS-2, 120 h
[2] = tested on: U2OS; assay: Anticancer activity against human U2OS cells expressing wild-type p53 assessed as inhibition of cell viability measured after 5 days by MTT assay; settings: 120 h

## CC1(C)[C@H]2CC[C@@]1(C)C(NC(=O)C(c1c(C(=O)O)[nH]c3cc(Cl)ccc13)N(C=O)Cc1ccc(OCc3ccccc3Br)cc1)C2 (some centres not stated)
[1]
  EC50: 60 µM
[2]
  EC50: 40 µM
